{"source": "paper PMC6829536", "about": "(International Journal of Molecular Sciences, 2019)", "key": {"[1]": {"biological_target": "T1, L98A CaFADS (Corynebacterium ammoniagenes, UniProt Q59263, L98A)", "T1 construct": "made in house; host or cells: E. coli BL21(DE3)", "test": "biochemical", "type": "biochemical", "protocol": "(§1) Reactions were initiated by the addition of ~20 nM of enzyme. After 1 min incubation at 25 °C, the reactions were stopped by boiling the mixtures for 5 min. The composition of flavins in the supernatant was determined using an Alliance HPLC system (Waters, Milford, MA, USA) equipped with a 2707 autosampler and a HSST3 column (4.6 × 150 mm, 3.5 µm, Waters) preceded by a pre-column (4.6 × 20 mm, 3.5 µm, Waters). The chromatography was developed at 1 mL/min with a 6 min isocratic program of methanol 40% (v/v) in 5 mM ammonium acetate (pH 6.0). Detection of flavins was carried out using a 2475 Multi λ fluorescence detector (Waters), excitation wavelength of 470 nm and emission wavelength of 530 nm. […] The flavinic products of the reaction were identified by their retention times and quantified through their corresponding standard curves obtained under the same conditions. Controls containing free flavins in the absence of the enzyme were treated similarly to reaction samples to discard flavin degradation during RFK activity determination. […] In case of inhibition, the experimental data were fitted to a model describing the substrate inhibition of a bi-substrate mechanism. In these situations, errors in apparent Km and kcat (^appKm and ^appkcat) increased with the inhibition constant (Ki) value getting closer to Km^S. Reaction mixtures were evaluated in triplicates, and final results are expressed as the standard error of the fitted value (value ± SE)."}, "[2]": {"biological_target": "T2, L98K CaFADS (Corynebacterium ammoniagenes, UniProt Q59263, L98K)", "T2 construct": "made in house; host or cells: E. coli BL21(DE3)", "test": "biochemical", "type": "biochemical", "protocol": "as §1"}, "[3]": {"biological_target": "T3, L98W CaFADS (Corynebacterium ammoniagenes, UniProt Q59263, L98W)", "T3 construct": "made in house; host or cells: E. coli BL21(DE3)", "test": "biochemical", "type": "biochemical", "protocol": "as §1"}, "[4]": {"biological_target": "T4, P56A/P58A CaFADS (Corynebacterium ammoniagenes, UniProt Q59263, P56A/P58A)", "T4 construct": "made in house; host or cells: E. coli BL21(DE3)", "test": "biochemical", "type": "biochemical", "protocol": "as §1"}, "[5]": {"biological_target": "T5, P56W CaFADS (Corynebacterium ammoniagenes, UniProt Q59263, P56W)", "T5 construct": "made in house; host or cells: E. coli BL21(DE3)", "test": "biochemical", "type": "biochemical", "protocol": "as §1"}, "[6]": {"biological_target": "T6, P58W CaFADS (Corynebacterium ammoniagenes, UniProt Q59263, P58W)", "T6 construct": "made in house; host or cells: E. coli BL21(DE3)", "test": "biochemical", "type": "biochemical", "protocol": "as §1"}, "[7]": {"system": "CaFADS variants", "test": "Qualitative detection of RFK, FMNAT and FADpp activities by TLC", "type": "biochemical, Corynebacterium ammoniagenes", "conditions": "all variants, 200 nM enzyme, 50 μM flavin, 0.2 mM ATP, 10 mM MgCl2, pH 7.0, 30 min and 2 h", "protocol": "RFK and FMNAT activities were qualitatively assayed by the incubation of enzymes with substrates and separation of flavins (substrates and products) from reaction mixtures using TLC on Silica Gel SIL-G-25 plates (20 × 20 cm, thickness 0.25 mm) as previously described. […] Reactions were stopped by boiling the preparations for 5 min. Flavin spots were visualized under UV light."}, "[8]": {"biological_target": "T7, WT CaFADS (Corynebacterium ammoniagenes, UniProt Q59263)", "T7 construct": "made in house; host or cells: Escherichia coli", "conditions": "saturating ATP, 20 mM PIPES, 0.8 mM MgCl2, pH 7.0, 25 °C, cited from earlier work"}}}
{"smiles": "Cc1cc2nc3c(=O)[nH]c(=O)nc-3n(C[C@H](O)[C@H](O)[C@H](O)CO)c2cc1C", "note": "[RF, Riboflavin]", "values": [{"measurement": "Ki", "setting": "[1]", "result": "32 ± 15", "unit": "µM"}, {"measurement": "kcat", "setting": "[1]; L98A CaFADS, RF varied, saturating ATP, apparent value, 20 mM PIPES, 0.8 mM MgCl2, pH 7.0, 25 °C", "result": "2.3 ± 0.433", "unit": "s⁻¹"}, {"measurement": "Ki", "setting": "[2]", "result": "41 ± 13", "unit": "µM"}, {"measurement": "kcat", "setting": "[2]; L98K CaFADS, RF varied, saturating ATP, apparent value, 20 mM PIPES, 0.8 mM MgCl2, pH 7.0, 25 °C", "result": "4.13 ± 0.567", "unit": "s⁻¹"}, {"measurement": "Ki", "setting": "[3]", "result": "46 ± 20", "unit": "µM"}, {"measurement": "kcat", "setting": "[3]; L98W CaFADS, RF varied, saturating ATP, apparent value, 20 mM PIPES, 0.8 mM MgCl2, pH 7.0, 25 °C", "result": "2.33 ± 0.35", "unit": "s⁻¹"}, {"measurement": "Ki", "setting": "[4]", "result": "54 ± 29", "unit": "µM"}, {"measurement": "kcat", "setting": "[4]; P56A/P58A CaFADS, RF varied, saturating ATP, apparent value, 20 mM PIPES, 0.8 mM MgCl2, pH 7.0, 25 °C", "result": "1.3 ± 0.2", "unit": "s⁻¹"}, {"measurement": "Ki", "setting": "[5]", "result": "6.5 ± 1.9", "unit": "µM"}, {"measurement": "decrease of Km^RF relative to WT", "setting": "[5]; P56W CaFADS vs WT", "result": "up to 30 fold"}, {"measurement": "kcat", "setting": "[5]; P56W CaFADS, RF varied, saturating ATP, apparent value, 20 mM PIPES, 0.8 mM MgCl2, pH 7.0, 25 °C", "result": "0.75 ± 0.083", "unit": "s⁻¹"}, {"measurement": "Ki", "setting": "[6]", "result": "39 ± 21", "unit": "µM"}, {"measurement": "kcat", "setting": "[6]; P58W CaFADS, RF varied, saturating ATP, apparent value, 20 mM PIPES, 0.8 mM MgCl2, pH 7.0, 25 °C", "result": "1.63 ± 0.317", "unit": "s⁻¹"}, {"measurement": "RFK activity (transformation of RF), qualitative", "setting": "[7]", "result": "All variants kept the RFK activity"}, {"measurement": "Ki", "setting": "[8]; RF substrate inhibition", "result": "4.9 ± 3.9", "unit": "µM"}, {"measurement": "Km", "setting": "[8]; RF varied, apparent value, read-out: Km^RF", "result": "12 ± 3", "unit": "µM"}, {"measurement": "kcat", "setting": "[8]; RF varied, apparent value", "result": "6.8 ± 3.33", "unit": "s⁻¹"}]}
